Measurements from paper PMC12155760, “A cobalamin-dependent pathway of choline demethylation from the human gut acetogen Eubacterium limosum [drawing 1]” (The Journal of Biological Chemistry, 2025).

Key:
MthA = molecular target: T1, MthA (Eubacterium limosum, UniProt A0AAC9QR60); test: HPLC, methyl-THF formation; format: biochemical; details: 5 mM THF, MthB, MthC, RamQ, Ti(III)citrate, ATP, 50 mM phosphocholine, MOPS pH 7.0, 24 °C
T1 construct: gene B2M23_01055
T1 sequence (A0AAC9QR60 1-264): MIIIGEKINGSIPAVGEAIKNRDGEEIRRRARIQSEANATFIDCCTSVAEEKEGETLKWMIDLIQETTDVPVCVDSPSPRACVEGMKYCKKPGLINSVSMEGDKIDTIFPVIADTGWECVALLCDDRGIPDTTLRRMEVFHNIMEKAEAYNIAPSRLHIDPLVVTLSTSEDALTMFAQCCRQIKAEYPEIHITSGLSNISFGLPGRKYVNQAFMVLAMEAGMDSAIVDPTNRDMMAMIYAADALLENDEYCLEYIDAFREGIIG

MthB = test: UV/Vis, methyl-Co(III)-MthC formation at […] nm; format: biochemical, Eubacterium limosum; details: co-substrate 30 μM Co(I)-MthC, RamQ, Ti(III)citrate, 2 mM ATP, MOPS pH 7.2, 37 °C; read-out: apparent KM
purified protein = substrate: C[N+](C)(C)CCO; test: purified protein; format: biochemical, Eubacterium limosum; details: 5 mM ATP, 10 mM MgCl2, 100 mM KCl, glycine-NaOH pH 9.0

**Q.** Nc1nc2c(c(=O)[nH]1)N[C@@H](CNc1ccc(C(=O)N[C@@H](CCC(=O)O)C(=O)O)cc1)CN2 [THF] was tested. Which “HPLC, methyl-THF formation” value (MthA) did it give?
**A.** the further addition of MthA allowed the methylation of THF with phosphocholine as assayed by HPLC

**Q.** For C[N+](C)(C)CCOP(=O)([O-])O [phosphocholine], which Km (MthB) is on record?
**A.** 11.3 ± 1.9 mM

B1: MthK (Eubacterium limosum) (protein)
chain: MVDGKFIEMQTEIMKNYPPANAQALLNIFNAASGMQEYLDNVLAKTRESYLYTQLRDLVENYYDIGTLLDVYQIFGGYINTSFGIYTEKNGKKQTWFVRKYKNGKELESLLFEHSMLKYAKENGFSYGAVPIPAKDGKTYHEVTETTTEGETKSYFAVFNFVGGKAHYDWIPNWANAGVADLTVISAAKSLAEFHNSTRGFDPEGRHGDNIMDNEDITVNEIIRKFPKTLKEYRKSYAEAGFENVYTEYYDANYDYFAKMCERSVIPDVDYDTMVSNVCHCDFHPGNFKYLDNGEVCGSFDYDMAKIDSRLFELGLAIHYCFSSWLSDTNGIINLDRASLFVKTYDEELHKAGGIEPLTDIEKKYLYEVTVQGALYDLGWCSSACVYDSTLDPYEYLFYTQHFVACLKWLEANEAAFRKAFD
**Q.** B1 was tested. Which Km (purified protein) did it give?
**A.** 0.0028 ± 0.0002 mM

**Q.** What about the kcat (purified protein) of the same molecule?
**A.** 13.8 ± 0.28 s⁻¹
